Data taken from patent US7893288B2, “Poly-halogenated triazapentadiene compositions” (Board of Regents, The University of Texas System, priority 2007, dated 2011).
≈ marks a conversion by molar mass, not a printed value. Where “and” joins values, the source holds several entries; their conditions need not be identical. Equal entries are not always repeated. Marks after values point to notes of the source that are not given here.

Columns and labels:
Format in all cases: cell-based
[1] = tested on: Pseudomonas aeruginosa PAO1; test: Disk sensitivity test (modified Kirby-Bauer), P. aeruginosa;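 further: Compound-loaded filter disks on LB agar lawns, DMSO as solvent, zone of inhibition around each disk read after overnight incubation at 37 °C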
Protocol: (§2) Filter disks were provided as sterile filter paper (about 6 mm in diameter) and spotted with 20 μL of a selected compound. Each compound was initially dissolved in dimethylsulfoxide (DMSO); any subsequent dilutions were also made in DMSO. Each filter was placed on an LB agar plate spread with 100 μL of a bacterial culture that had been grown overnight in suitable LB broth. Plates were incubated overnight at 37° C., after which, the extent of growth inhibition around each filter disk was measured. Bacterial strains included Staphylococcus aureus (ATCC 25923), Pseudomonas aeruginosa PAO1, Bacillus subtilis W168 and Escherichia coli HB101. […] The latter two strains are non-pathogenic Gram-positive and Gram-negative bacterial strains, respectively.

[2] = tested on: Pseudomonas aeruginosa PAO1; test: Minimum inhibitory concentration in LB broth, P. aeruginosa; conditions: for Relative to AgNO3: efficacy per mole from MIC values
Bacillus subtilis W168 [3] = test: Minimum inhibitory concentration in LB broth, B. subtilis; conditions: for Relative to AgNO3: efficacy per mole from MIC values
Escherichia coli HB101 [4] = test: Minimum inhibitory concentration in LB broth, E. coli; conditions: for Relative to AgNO3: efficacy per mole from MIC values;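 on all read-outs here: broth dilution MIC, test compounds first taken up in DMSO, then serially diluted in LB medium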
Bacillus subtilis W168 [5] = test: Disk sensitivity test (modified Kirby-Bauer), B. subtilis;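 further: Compound-loaded filter disks on LB agar plates seeded with a bacterial lawn, plates held overnight at 37 °C, then the clear zone around each disk measured, compounds in DMSO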
Protocol: as §2

Escherichia coli HB101 [6] = test: Disk sensitivity test (modified Kirby-Bauer), E. coli;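 further: filter disk loaded with compound in DMSO laid on an LB agar bacterial lawn, kept overnight at 37 °C, then the inhibition zone around the disk is measured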
Protocol: as §2

[7] = tested on: Gram-positive bacteria (e.g., S. aureus and B. subtilis); test: Growth inhibition of Gram-positive bacteria, summary of TABLES 6-19
Protocol: (§1) The new class of fluorinated triazapentadiene compounds with and without metal complexation as described herein were analyzed for antibacterial activity against several bacterial strains (both Gram positive and Gram negative). Methods for antimicrobial analysis included a modified Kirby-Bauer method and a determination of their minimum inhibitory concentrations. In brief, the modified Kirby-Bauer method relied on placement of a filter disk impregnated with a desired compound on a solid growth medium. Bacteria were grown to a confluent lawn and the extent of growth inhibition was measured (e.g., as an extent/percentage of a clear zone on the disk and/or solid medium).
Filter disks were provided as sterile filter paper (about 6 mm in diameter) and spotted with 20 μL of a selected compound. Each compound was initially dissolved in dimethylsulfoxide (DMSO); any subsequent dilutions were also made in DMSO. Each filter was placed on an LB agar plate spread with 100 μL of a bacterial culture that had been grown overnight in suitable LB broth. Plates were incubated overnight at 37° C., after which, the extent of growth inhibition around each filter disk was measured. Bacterial strains included Staphylococcus aureus (ATCC 25923), Pseudomonas aeruginosa PAO1, Bacillus subtilis W168 and Escherichia coli HB101. […]

[8] = tested on: Staphylococcus aureus (ATCC 25923); test: Disk sensitivity test (modified Kirby-Bauer), S. aureus;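 further: Compound-loaded filter disks on LB agar plates seeded with a confluent bacterial lawn, compound dissolved in DMSO, plates kept overnight at 37 °C, then inhibition zone around disk measured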
Protocol: as §2

[9] = tested on: Staphylococcus aureus (ATCC 25923); test: Minimum inhibitory concentration in LB broth, S. aureus; conditions: for Relative to AgNO3: efficacy per mole from MIC values
[10] = tested on: Gram positive and Gram negative bacteria; test: Antimicrobial activity, summary of TABLES 16-18
Protocol: as §1
For MIC assessment, compounds were initially dissolved in DMSO and serial dilutions of soluble compounds were made in LB broth.

SMILES: Cc1cc(C)c(N=C(N=C(Nc2c(C)cc(C)cc2C)C(F)(F)C(F)(F)C(F)(F)F)C(F)(F)C(F)(F)C(F)(F)F)c(C)c1 [[N{(C3F7)C(Mes)N}2]H]
- Diameter of the zone of growth inhibition ([1]; 5.7 × 10^0 mM): 8.5 mm
- Diameter of the zone of growth inhibition ([1]; 5.7 × 10^1 mM): 9.0 mm
- Diameter of the zone of growth inhibition ([1]; 5.7 × 10^−1 mM): 7.5 mm
- Diameter of the zone of growth inhibition ([1]; 5.7 × 10^−2 mM): 7.5 mm
- Diameter of the zone of growth inhibition ([1]; 5.7 × 10^−3 mM): 7.0 mm
- MIC [2]: 1402.43 μg/ml and 2.18 mM
- Relative to AgNO3 [2]: 8.44 × 10^−3
- MIC (Bacillus subtilis W168 [3]): 2.69 mM (≈ 1730 µg/mL)
- Relative to AgNO3 (Bacillus subtilis W168 [3]): 5.46 × 10^−2
- MIC (Escherichia coli HB101 [4]): 1126.88 μg/ml and 1.75 mM
- Relative to AgNO3 (Escherichia coli HB101 [4]): 3.37 × 10^−2
- Diameter of the zone of growth inhibition (Bacillus subtilis W168 [5]; 5.7 × 10^0 mM): 8.0 mm
- Diameter of the zone of growth inhibition (Bacillus subtilis W168 [5]; 5.7 × 10^1 mM): 9.0 mm
- Diameter of the zone of growth inhibition (Bacillus subtilis W168 [5]; 5.7 × 10^−1 mM): 6.0 (NZ) mm
- Diameter of the zone of growth inhibition (Bacillus subtilis W168 [5]; 5.7 × 10^−2 mM): 6.0 (NZ) mm
- Diameter of the zone of growth inhibition (Bacillus subtilis W168 [5]; 5.7 × 10^−3 mM): 6.0 (NZ) mm
- Diameter of the zone of growth inhibition (Escherichia coli HB101 [6]; 5.7 × 10^0 mM): 8.0 mm
- Diameter of the zone of growth inhibition (Escherichia coli HB101 [6]; 5.7 × 10^1 mM): 10.0 mm
- Diameter of the zone of growth inhibition (Escherichia coli HB101 [6]; 5.7 × 10^−1 mM): 7.5 mm
- Diameter of the zone of growth inhibition (Escherichia coli HB101 [6]; 5.7 × 10^−2 mM): 7.0 mm
- Diameter of the zone of growth inhibition (Escherichia coli HB101 [6]; 5.7 × 10^−3 mM): 7.0 mm
- antibacterial activity against Gram-positive organisms (in words) [7]: less effective
- Diameter of the zone of growth inhibition ([8]; 5.7 × 10^0 mM): 7.5 mm
- Diameter of the zone of growth inhibition ([8]; 5.7 × 10^1 mM): 9.5 mm
- Diameter of the zone of growth inhibition ([8]; 5.7 × 10^−1 mM): 6.0 (NZ) mm
- Diameter of the zone of growth inhibition ([8]; 5.7 × 10^−2 mM): 6.0 (NZ) mm
- Diameter of the zone of growth inhibition ([8]; 5.7 × 10^−3 mM): 6.0 (NZ) mm
- MIC [9]: 2252.38 μg/ml and 3.50 mM
- Relative to AgNO3 [9]: 2.10 × 10^−2

SMILES: Fc1cccc(C(F)(F)F)c1N=C(N=C(Nc1c(F)cccc1C(F)(F)F)C(F)(F)C(F)(F)C(F)(F)F)C(F)(F)C(F)(F)C(F)(F)F [[N{(C3F7)C(2-F,6-(CF3)C6H3)N}2]H]
- Diameter of the zone of growth inhibition ([1]; 5.7 × 10^0 mM): 8.5 mm
- Diameter of the zone of growth inhibition ([1]; 5.7 × 10^1 mM): 9.0 mm
- Diameter of the zone of growth inhibition ([1]; 5.7 × 10^−1 mM): 8.0 mm
- Diameter of the zone of growth inhibition ([1]; 5.7 × 10^−2 mM): 8.0 mm
- Diameter of the zone of growth inhibition ([1]; 5.7 × 10^−3 mM): 8.0 mm
- Diameter of the zone of growth inhibition ([1]; 5.7 × 10^−4 mM): 7.0 mm
- Diameter of the zone of growth inhibition ([1]; 5.7 × 10^−5 mM): 6.0 (NZ) mm
- MIC [2]: 2912.70 μg/ml and 3.98 mM
- Relative to AgNO3 [2]: 4.62 × 10^−3
- antimicrobial activity (in words) [10]: Effective
- MIC (Bacillus subtilis W168 [3]): 1.60 × 10^−1 μg/ml and 2.19 × 10^−4 mM
- Relative to AgNO3 (Bacillus subtilis W168 [3]): 671.23
- MIC (Escherichia coli HB101 [4]): 2912.70 μg/ml and 3.98 mM
- Relative to AgNO3 (Escherichia coli HB101 [4]): 1.48 × 10^−2
- Diameter of the zone of growth inhibition (Bacillus subtilis W168 [5]; 5.7 × 10^0 mM): 85.0 mm
- Diameter of the zone of growth inhibition (Bacillus subtilis W168 [5]; 5.7 × 10^1 mM): 100.0 mm
- Diameter of the zone of growth inhibition (Bacillus subtilis W168 [5]; 5.7 × 10^−1 mM): 50.0 mm
- Diameter of the zone of growth inhibition (Bacillus subtilis W168 [5]; 5.7 × 10^−2 mM): 30.0 mm
- Diameter of the zone of growth inhibition (Bacillus subtilis W168 [5]; 5.7 × 10^−3 mM): 13.5 mm
- Diameter of the zone of growth inhibition (Bacillus subtilis W168 [5]; 5.7 × 10^−4 mM): 7.0 mm
- Diameter of the zone of growth inhibition (Bacillus subtilis W168 [5]; 5.7 × 10^−5 mM): 8.0 mm
- Diameter of the zone of growth inhibition (Bacillus subtilis W168 [5]; 5.7 × 10^−6 mM): 8.0 mm
- Diameter of the zone of growth inhibition (Bacillus subtilis W168 [5]; 5.7 × 10^−7 mM): 7.5 mm
- Diameter of the zone of growth inhibition (Escherichia coli HB101 [6]; 5.7 × 10^0 mM): 8.5 mm
- Diameter of the zone of growth inhibition (Escherichia coli HB101 [6]; 5.7 × 10^1 mM): 9.0 mm
- Diameter of the zone of growth inhibition (Escherichia coli HB101 [6]; 5.7 × 10^−1 mM): 8.0 mm
- Diameter of the zone of growth inhibition (Escherichia coli HB101 [6]; 5.7 × 10^−2 mM): 7.0 mm
- Diameter of the zone of growth inhibition (Escherichia coli HB101 [6]; 5.7 × 10^−3 mM): 7.0 mm
- Diameter of the zone of growth inhibition (Escherichia coli HB101 [6]; 5.7 × 10^−4 mM): 7.0 mm
- Diameter of the zone of growth inhibition (Escherichia coli HB101 [6]; 5.7 × 10^−5 mM): 7.0 mm
- Diameter of the zone of growth inhibition ([8]; 5.7 × 10^0 mM): 36.0 mm
- Diameter of the zone of growth inhibition ([8]; 5.7 × 10^1 mM): 47.5 mm
- Diameter of the zone of growth inhibition ([8]; 5.7 × 10^−1 mM): 34.0 mm
- Diameter of the zone of growth inhibition ([8]; 5.7 × 10^−2 mM): 9.0 mm
- Diameter of the zone of growth inhibition ([8]; 5.7 × 10^−3 mM): 8.0 mm
- Diameter of the zone of growth inhibition ([8]; 5.7 × 10^−4 mM): 6.0 (NZ) mm
- Diameter of the zone of growth inhibition ([8]; 5.7 × 10^−5 mM): 6.0 (NZ) mm
- MIC [9]: 1.55 μg/ml and 1.06 × 10^−3 mM
- Relative to AgNO3 [9]: 34.71

SMILES: Fc1c(F)c(F)c(N=C(N=C([N]([Ag])c2c(F)c(F)c(F)c(F)c2F)C(F)(F)C(F)(F)C(F)(F)F)C(F)(F)C(F)(F)C(F)(F)F)c(F)c1F [[N{(C3F7)C(C6F5)N}2]Ag]
- Diameter of the zone of growth inhibition ([1]; 5.7 × 10^0 mM): 16.5 mm
- Diameter of the zone of growth inhibition ([1]; 5.7 × 10^1 mM): 27.0 mm
- Diameter of the zone of growth inhibition ([1]; 5.7 × 10^−1 mM): 12.0 mm
- Diameter of the zone of growth inhibition ([1]; 5.7 × 10^−2 mM): 8.0 mm
- Diameter of the zone of growth inhibition ([1]; 5.7 × 10^−3 mM): 7.5 mm
- Diameter of the zone of growth inhibition ([1]; 5.7 × 10^−4 mM): 6.0 (NZ) mm
- Diameter of the zone of growth inhibition ([1]; 5.7 × 10^−5 mM): 6.0 (NZ) mm
- Diameter of the zone of growth inhibition ([1]; 5.7 × 10^−6 mM): 6.0 (NZ) mm
- MIC [2]: 23.69 μg/ml and 2.80 × 10^−2 mM
- sensitivity of the bacteria to the compound (in words) [2]: most sensitive
- Relative to AgNO3 [2]: 6.57 × 10^−1
- antimicrobial activity (in words) [10]: Effective
- MIC (Bacillus subtilis W168 [3]): 1.80 μg/ml and 2.13 × 10^−3 mM
- Relative to AgNO3 (Bacillus subtilis W168 [3]): 69.01
- MIC (Escherichia coli HB101 [4]): 23.69 μg/ml and 2.80 × 10^−2 mM
- sensitivity of the bacteria to the compound (in words) (Escherichia coli HB101 [4]): most sensitive
- Relative to AgNO3 (Escherichia coli HB101 [4]): 2.10
- Diameter of the zone of growth inhibition (Bacillus subtilis W168 [5]; 5.7 × 10^0 mM): 37.0 mm
- Diameter of the zone of growth inhibition (Bacillus subtilis W168 [5]; 5.7 × 10^1 mM): 47.0 mm
- Diameter of the zone of growth inhibition (Bacillus subtilis W168 [5]; 5.7 × 10^−1 mM): 38.0 mm
- Diameter of the zone of growth inhibition (Bacillus subtilis W168 [5]; 5.7 × 10^−2 mM): 22.0 mm
- Diameter of the zone of growth inhibition (Bacillus subtilis W168 [5]; 5.7 × 10^−3 mM): 11.0 mm
- Diameter of the zone of growth inhibition (Bacillus subtilis W168 [5]; 5.7 × 10^−4 mM): 7.5 mm
- Diameter of the zone of growth inhibition (Bacillus subtilis W168 [5]; 5.7 × 10^−5 mM): 6.0 (NZ) mm
- Diameter of the zone of growth inhibition (Bacillus subtilis W168 [5]; 5.7 × 10^−6 mM): 6.0 (NZ) mm
- Diameter of the zone of growth inhibition (Escherichia coli HB101 [6]; 5.7 × 10^0 mM): 14.0 mm
- Diameter of the zone of growth inhibition (Escherichia coli HB101 [6]; 5.7 × 10^1 mM): 18.0 mm
- Diameter of the zone of growth inhibition (Escherichia coli HB101 [6]; 5.7 × 10^−1 mM): 11.0 mm
- Diameter of the zone of growth inhibition (Escherichia coli HB101 [6]; 5.7 × 10^−2 mM): 8.5 mm
- Diameter of the zone of growth inhibition (Escherichia coli HB101 [6]; 5.7 × 10^−3 mM): 8.0 mm
- Diameter of the zone of growth inhibition (Escherichia coli HB101 [6]; 5.7 × 10^−4 mM): 6.0 (NZ) mm
- Diameter of the zone of growth inhibition (Escherichia coli HB101 [6]; 5.7 × 10^−5 mM): 6.0 (NZ) mm
- Diameter of the zone of growth inhibition (Escherichia coli HB101 [6]; 5.7 × 10^−6 mM): 6.0 (NZ) mm
- Diameter of the zone of growth inhibition ([8]; 5.7 × 10^0 mM): 33.0 mm
- Diameter of the zone of growth inhibition ([8]; 5.7 × 10^1 mM): 70.0 mm
- Diameter of the zone of growth inhibition ([8]; 5.7 × 10^−1 mM): 39.0 mm
- Diameter of the zone of growth inhibition ([8]; 5.7 × 10^−2 mM): 21.5 mm
- Diameter of the zone of growth inhibition ([8]; 5.7 × 10^−3 mM): 10.0 mm
- Diameter of the zone of growth inhibition ([8]; 5.7 × 10^−4 mM): 6.0 (NZ)^b mm
- Diameter of the zone of growth inhibition ([8]; 5.7 × 10^−5 mM): 6.0 (NZ) mm
- Diameter of the zone of growth inhibition ([8]; 5.7 × 10^−6 mM): 6.0 (NZ) mm
- MIC [9]: 1.80 μg/ml and 2.13 × 10^−3 mM
- Relative to AgNO3 [9]: 34.45
